From patent US20190071670A1, “Methods Of Treatment For Alpha-1 Antitrypsin Deficiency” (Arrowhead Pharmaceuticals, Inc., priority 2016, published 2019)

Test system: hAAT
Assay: Serum hAAT protein levels in PiZ mice (ELISA)
Type: in vivo, human (expressed in PiZ mice)
Conditions: for Serum hAAT levels reduced: 6 month old female PiZ mice, single IV 8 mg/kg + 8 mg/kg MLP delivery polymer; for Serum hAAT normalized to Day 1 and control / Normalized serum hAAT levels: PiZ mice; for Normalized serum hAAT levels: normalized to day 1 and saline control
Experimental: Human AAT protein levels in serum were monitored for 29 days. At the indicated times, blood samples were collected and assayed for hAAT by ELISA. Day 1 samples were collected prior to trigger administration. For mRNA analysis, 3-4 mice were euthanized at each of days 3, 8, 15, 22, and 29. For euthanized mice, cardiac stick were performed for serum isolation for AAT ELISA (200 μl serum). Half of the left lateral liver lobe was collected and snap-freeze in liquid nitrogen for RNA isolation. The remainder of the left lobes were embedded into paraffin blocks for PAS-D staining with hematoxylin as counter-stain. Serum hAAT levels in mice given AAT Duplex Pair SEQ ID NO: 5/6 were 95% reduced on day 8 and remained reduced to day 29, at which time they were 79% reduced. Mice given AAT Duplex Pair SEQ ID NO: 5/6 were euthanized at either day 3, 8, 15, 22 or 29. Mice given saline or Luciferase siRNA control (SEQ ID 7/8) were euthanized on day 29. Levels of hAAT mRNA in the livers were measured by RT-qPCR. The hAAT mRNA in mice given AAT Duplex Pair SEQ ID NO: 5/6 was reduced by 97% on day 3 and remained reduced on day 29, at which time levels were 56% reduced. The size of the globules and the area of the liver covered by globules was digitally quantitated from liver specimens stained with PAS-D. Duplex Pair SEQ ID NO: 5/6 treated mice had 70% smaller globules at day 15 and 62% smaller globules at day 29. The area of the liver covered with globules was 83% reduced on day 15 and 72% reduced on day 29 (FIG. 5).

Duplex Pair SEQ ID NO: 5/6: double-stranded AAT RNAi agent: modified antisense strand SEQ ID NO: 5 annealed to Chol-TEG sense strand SEQ ID NO: 6 (antisense TGGAACUUGGUGAUGAUAUTT; sense UAUAUAUCAUCACCAAGUUCCAT; Chol-TEG on sense strand; chemical modifications; antisense strand of dsRNA; modified_base 7 /mod_base = “2′-3′ seco corresponding nucleotide”; modified_base 2,4,6,8,10,12,14,16,18 /mod_base = “2′-deoxy-2′-fluoro corresponding nucleoside”; modified_base 3,5,9,11,13,15,17,19 /mod_base = “2′-O-methyl corresponding nucleoside”; modified_base 21 /mod_base = “5′-phosphorothioate corresponding nucleotide”; sense strand of dsRNA; modified_base 2 /mod_base = “2′-hydroxy corresponding nucleoside”; modified_base 4,6,8,10,12,14,16,18,20,22 /mod_base = “2′-deoxy-2′-fluoro corresponding nucleoside”; …)
Serum hAAT levels reduced (day 8): 95% | Serum hAAT levels reduced (day 29): 79% | Serum hAAT normalized to Day 1 and control (single IV 0.5 mg/kg + 4 mg/kg MLP delivery polymer, Day 1): 1.00 | Serum hAAT normalized to Day 1 and control (single IV 0.5 mg/kg + 4 mg/kg MLP delivery polymer, Day 3): 0.27 ± 0.02 | Serum hAAT normalized to Day 1 and control (single IV 0.5 mg/kg + 4 mg/kg MLP delivery polymer, Day 8): 0.29 ± 0.09 | Serum hAAT normalized to Day 1 and control (single IV 0.5 mg/kg + 4 mg/kg MLP delivery polymer, Day 15): 0.43 ± 0.01 | Serum hAAT normalized to Day 1 and control (single IV 0.5 mg/kg + 4 mg/kg MLP delivery polymer, Day 22): 0.73 ± 0.03 | Serum hAAT normalized to Day 1 and control (single IV 0.5 mg/kg + 4 mg/kg MLP delivery polymer, Day 29): 0.66 ± 0.05 | Serum hAAT normalized to Day 1 and control (single IV 0.5 mg/kg + 4 mg/kg MLP delivery polymer, Day 35): 0.97 ± 0.02 | Serum hAAT normalized to Day 1 and control (single IV 0.5 mg/kg + 4 mg/kg MLP delivery polymer, Day −3): 0.64 ± 0.10 | Serum hAAT normalized to Day 1 and control (single IV 0.5 mg/kg + 8 mg/kg MLP delivery polymer, Day 1): 1.00 | Serum hAAT normalized to Day 1 and control (single IV 0.5 mg/kg + 8 mg/kg MLP delivery polymer, Day 3): 0.20 ± 0.02 | Serum hAAT normalized to Day 1 and control (single IV 0.5 mg/kg + 8 mg/kg MLP delivery polymer, Day 8): 0.10 ± 0.03 | Serum hAAT normalized to Day 1 and control (single IV 0.5 mg/kg + 8 mg/kg MLP delivery polymer, Day 15): 0.19 ± 0.05 | Serum hAAT normalized to Day 1 and control (single IV 0.5 mg/kg + 8 mg/kg MLP delivery polymer, Day 22): 0.55 ± 0.05 | Serum hAAT normalized to Day 1 and control (single IV 0.5 mg/kg + 8 mg/kg MLP delivery polymer, Day 29): 0.49 ± 0.09 | Serum hAAT normalized to Day 1 and control (single IV 0.5 mg/kg + 8 mg/kg MLP delivery polymer, Day 35): 0.71 ± 0.09 | Serum hAAT normalized to Day 1 and control (single IV 0.5 mg/kg + 8 mg/kg MLP delivery polymer, Day −3): 0.71 ± 0.03 | Normalized serum hAAT levels (single IV 2 mg/kg + 2 mg/kg MLP, day 1): 1.00 | Normalized serum hAAT levels (single IV 2 mg/kg + 2 mg/kg MLP, day 8): 0.32 ± 0.24 | Normalized serum hAAT levels (single IV 2 mg/kg + 2 mg/kg MLP, day 15): 0.88 ± 0.13 | Normalized serum hAAT levels (single IV 2 mg/kg + 2 mg/kg MLP, day 20): 0.89 ± 0.18 | Normalized serum hAAT levels (single IV 2 mg/kg + 2 mg/kg MLP, day 29): 1.01 ± 0.23 | Normalized serum hAAT levels (single IV 2 mg/kg + 2 mg/kg MLP, day 36): 1.02 ± 0.15 | Normalized serum hAAT levels (single IV 2 mg/kg + 2 mg/kg MLP, day −7): 0.91 ± 0.11 | Serum hAAT normalized to Day 1 and control (single IV 2 mg/kg + 4 mg/kg MLP delivery polymer, Day 1): 1.00 | Serum hAAT normalized to Day 1 and control (single IV 2 mg/kg + 4 mg/kg MLP delivery polymer, Day 3): 0.25 ± 0.03 | Serum hAAT normalized to Day 1 and control (single IV 2 mg/kg + 4 mg/kg MLP delivery polymer, Day 8): 0.21 ± 0.07 | Serum hAAT normalized to Day 1 and control (single IV 2 mg/kg + 4 mg/kg MLP delivery polymer, Day 15): 0.32 ± 0.06 | Serum hAAT normalized to Day 1 and control (single IV 2 mg/kg + 4 mg/kg MLP delivery polymer, Day 22): 0.71 ± 0.14 | Serum hAAT normalized to Day 1 and control (single IV 2 mg/kg + 4 mg/kg MLP delivery polymer, Day 29): 0.66 ± 0.06 | Serum hAAT normalized to Day 1 and control (single IV 2 mg/kg + 4 mg/kg MLP delivery polymer, Day 35): 0.70 ± 0.09 | Serum hAAT normalized to Day 1 and control (single IV 2 mg/kg + 4 mg/kg MLP delivery polymer, Day −3): 0.67 ± 0.02 | Normalized serum hAAT levels (single IV 2 mg/kg + 4 mg/kg MLP, day 1): 1.00 | Normalized serum hAAT levels (single IV 2 mg/kg + 4 mg/kg MLP, day 8): 0.07 ± 0.04 | Normalized serum hAAT levels (single IV 2 mg/kg + 4 mg/kg MLP, day 15): 0.50 ± 0.19 | Normalized serum hAAT levels (single IV 2 mg/kg + 4 mg/kg MLP, day 20): 0.67 ± 0.12 | Normalized serum hAAT levels (single IV 2 mg/kg + 4 mg/kg MLP, day 29): 0.89 ± 0.06 | Normalized serum hAAT levels (single IV 2 mg/kg + 4 mg/kg MLP, day 36): 0.94 ± 0.17 | Normalized serum hAAT levels (single IV 2 mg/kg + 4 mg/kg MLP, day −7): 0.90 ± 0.15 | Serum hAAT normalized to Day 1 and control (single IV 2 mg/kg + 8 mg/kg MLP delivery polymer, Day 1): 1.00 | Serum hAAT normalized to Day 1 and control (single IV 2 mg/kg + 8 mg/kg MLP delivery polymer, Day 3): 0.17 ± 0.03 | Serum hAAT normalized to Day 1 and control (single IV 2 mg/kg + 8 mg/kg MLP delivery polymer, Day 8): 0.05 ± 0.00 | Serum hAAT normalized to Day 1 and control (single IV 2 mg/kg + 8 mg/kg MLP delivery polymer, Day 15): 0.10 ± 0.03 | Serum hAAT normalized to Day 1 and control (single IV 2 mg/kg + 8 mg/kg MLP delivery polymer, Day 22): 0.22 ± 0.03 | Serum hAAT normalized to Day 1 and control (single IV 2 mg/kg + 8 mg/kg MLP delivery polymer, Day 29): 0.40 ± 0.06 | Serum hAAT normalized to Day 1 and control (single IV 2 mg/kg + 8 mg/kg MLP delivery polymer, Day 35): 0.63 ± 0.04 | Serum hAAT normalized to Day 1 and control (single IV 2 mg/kg + 8 mg/kg MLP delivery polymer, Day −3): 0.53 ± 0.08 | Normalized serum hAAT levels (single IV 4 mg/kg + 2 mg/kg MLP, day 1): 1.00 | Normalized serum hAAT levels (single IV 4 mg/kg + 2 mg/kg MLP, day 8): 0.08 ± 0.03 | Normalized serum hAAT levels (single IV 4 mg/kg + 2 mg/kg MLP, day 15): 0.68 ± 0.13 | Normalized serum hAAT levels (single IV 4 mg/kg + 2 mg/kg MLP, day 20): 0.90 ± 0.15 | Normalized serum hAAT levels (single IV 4 mg/kg + 2 mg/kg MLP, day 29): 1.07 ± 0.07 | Normalized serum hAAT levels (single IV 4 mg/kg + 2 mg/kg MLP, day 36): 1.01 ± 0.08 | Normalized serum hAAT levels (single IV 4 mg/kg + 2 mg/kg MLP, day −7): 1.27 ± 0.07 | Serum hAAT normalized to Day 1 and control (single IV 4 mg/kg + 4 mg/kg MLP delivery polymer, Day 1): 1.00 | Serum hAAT normalized to Day 1 and control (single IV 4 mg/kg + 4 mg/kg MLP delivery polymer, Day 3): 0.27 ± 0.03 | Serum hAAT normalized to Day 1 and control (single IV 4 mg/kg + 4 mg/kg MLP delivery polymer, Day 8): 0.13 ± 0.02 | Serum hAAT normalized to Day 1 and control (single IV 4 mg/kg + 4 mg/kg MLP delivery polymer, Day 15): 0.23 ± 0.07 | Serum hAAT normalized to Day 1 and control (single IV 4 mg/kg + 4 mg/kg MLP delivery polymer, Day 22): 0.58 ± 0.09 | Serum hAAT normalized to Day 1 and control (single IV 4 mg/kg + 4 mg/kg MLP delivery polymer, Day 29): 0.60 ± 0.08 | Serum hAAT normalized to Day 1 and control (single IV 4 mg/kg + 4 mg/kg MLP delivery polymer, Day 35): 0.92 ± 0.22 | Serum hAAT normalized to Day 1 and control (single IV 4 mg/kg + 4 mg/kg MLP delivery polymer, Day −3): 0.70 ± 0.17
